Assay results: patent US20220226337A1 (Gilead Sciences, Inc., priority 2018, published 2022)

Biological target: T1, α4β7 integrin interaction with MadCAM-1 (RPMI8866 cells) (Homo sapiens, UniProt P13612+P26010)
T1 construct: α4β7 integrin expressing cells; endogenous in cells; host or cells: RPMI8866 cells
T1 sequence (P13612 34-1032): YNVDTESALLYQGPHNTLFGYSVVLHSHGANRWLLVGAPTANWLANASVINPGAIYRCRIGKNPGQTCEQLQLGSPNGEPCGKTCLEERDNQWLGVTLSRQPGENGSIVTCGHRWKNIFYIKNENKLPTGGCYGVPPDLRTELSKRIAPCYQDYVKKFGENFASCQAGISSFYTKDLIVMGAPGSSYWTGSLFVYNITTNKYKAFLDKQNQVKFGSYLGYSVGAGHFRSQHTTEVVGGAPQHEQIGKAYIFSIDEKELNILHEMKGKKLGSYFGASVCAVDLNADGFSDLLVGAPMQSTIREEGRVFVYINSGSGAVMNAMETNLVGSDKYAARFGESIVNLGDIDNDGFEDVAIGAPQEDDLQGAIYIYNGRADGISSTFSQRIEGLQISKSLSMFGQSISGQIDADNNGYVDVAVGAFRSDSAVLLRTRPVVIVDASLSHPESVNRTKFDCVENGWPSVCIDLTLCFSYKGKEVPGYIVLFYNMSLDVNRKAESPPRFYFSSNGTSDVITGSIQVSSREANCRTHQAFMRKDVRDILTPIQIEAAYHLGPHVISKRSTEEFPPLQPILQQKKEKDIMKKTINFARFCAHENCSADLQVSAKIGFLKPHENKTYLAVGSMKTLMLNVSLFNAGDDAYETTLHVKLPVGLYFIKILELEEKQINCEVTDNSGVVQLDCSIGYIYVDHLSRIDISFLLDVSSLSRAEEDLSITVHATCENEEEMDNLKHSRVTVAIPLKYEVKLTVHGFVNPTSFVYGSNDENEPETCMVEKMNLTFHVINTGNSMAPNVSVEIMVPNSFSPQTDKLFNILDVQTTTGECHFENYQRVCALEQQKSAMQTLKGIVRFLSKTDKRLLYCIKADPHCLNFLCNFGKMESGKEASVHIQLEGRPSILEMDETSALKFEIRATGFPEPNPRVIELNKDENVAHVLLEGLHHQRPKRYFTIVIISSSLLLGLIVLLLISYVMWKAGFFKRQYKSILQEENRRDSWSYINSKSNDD
T1 sequence (P26010 20-798): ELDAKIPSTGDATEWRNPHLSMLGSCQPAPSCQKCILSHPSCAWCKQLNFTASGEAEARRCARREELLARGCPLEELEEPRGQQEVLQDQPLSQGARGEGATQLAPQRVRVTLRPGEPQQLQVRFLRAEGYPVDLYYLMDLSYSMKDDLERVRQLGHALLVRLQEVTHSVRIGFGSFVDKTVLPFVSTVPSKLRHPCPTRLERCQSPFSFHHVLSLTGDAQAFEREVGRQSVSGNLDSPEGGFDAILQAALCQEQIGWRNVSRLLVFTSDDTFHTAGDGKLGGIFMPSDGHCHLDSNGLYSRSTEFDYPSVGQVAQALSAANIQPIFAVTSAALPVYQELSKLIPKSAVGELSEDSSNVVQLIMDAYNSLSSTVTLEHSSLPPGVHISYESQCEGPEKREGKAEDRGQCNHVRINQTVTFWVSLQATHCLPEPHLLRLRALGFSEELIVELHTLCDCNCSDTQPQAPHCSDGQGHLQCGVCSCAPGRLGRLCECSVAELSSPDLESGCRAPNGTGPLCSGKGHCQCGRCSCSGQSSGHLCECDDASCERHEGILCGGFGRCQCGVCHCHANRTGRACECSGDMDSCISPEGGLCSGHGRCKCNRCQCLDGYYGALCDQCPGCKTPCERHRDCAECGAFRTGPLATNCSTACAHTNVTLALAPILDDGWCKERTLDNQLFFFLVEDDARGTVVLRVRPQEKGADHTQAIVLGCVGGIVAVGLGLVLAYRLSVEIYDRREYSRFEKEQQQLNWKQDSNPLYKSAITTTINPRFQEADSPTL
Assay: α4β7 Integrin Cell Capture Assay
Format: cell-based
Settings: capture of α4β7 integrin expressing RPMI8866 cells on recombinant MadCAM-1 extracellular domain-coated plate; 0.5 mM MnCl2
Method: The potency of inhibitors in preventing α4β7 integrin interaction with MadCAM-1 was measured by monitoring the capture of α4β7 integrin expressing cells on a recombinant MadCAM-1 extracellular domain-coated plate. 384-well plates (Corning 3702) were coated with MadCAM-1 extracellular domain by dispensing 20 μL of MAdCAM-1 at 1.0 μg/mL per well and incubating overnight at 4° C. The plates were then washed with PBS and blocked with 3% BSA for 2 hours before being washed again. RPMI8866 cells were spun down and re-suspended in assay medium (DMEM+0.5% FBS+0.5 mM MnCl2) at a density of 0.5×10^6 cells/mL. The cells were then dispensed (60 μL/well) to a 384-well plate (Greiner 781280) that was previously spotted with 60 nL of test compound per well. The plates were incubated at 37° C. for 1 hour. 50 μL of cells were transferred to the blocked, MadCAM-1-coated plates and incubated for 30 minutes at 37° C. 10 μL of 12% glutaraldehyde containing Hoechst 33342 (0.06 mg/mL) was added to the cells (2% glutaraldehyde and 0.01 mg/mL final concentrations). The plates were incubated for 90 minutes at room temperature. The plates were then washed 3 times with 70 μL of PBS per well and imaged on a Cellomics ArrayScan instrument. The cells that were bound to the plate were counted and plotted against the compound concentration to determine the EC50 of the test compounds.

EC50 [nM]	SMILES
3.76	Cc1nc(-c2ccc(C[C@H](NC(=O)c3c(F)cccc3F)C(=O)O)c3c2OCCO3)c(C(F)(F)F)c2ccccc12 [Example 2, (S)-2-(2,6-difluorobenzamido)-3-(8-(1-methyl-4-(trifluoromethyl)isoquinolin-3-yl)-2,3-dihydrobenzo[b][1,4]dioxin-5-yl)propanoic acid]
6.49	CCc1nc(-c2ccc(C[C@H](NC(=O)c3c(F)cccc3F)C(=O)O)c3c2OCCO3)c(C(F)(F)F)c2ccccc12 [Example 3]
26.3	O=C(N[C@@H](Cc1ccc(-c2c(Cl)cc(F)cc2Cl)c2c1OCCO2)C(=O)O)c1c(F)cccc1F [Example 4, (S)-3-(8-(2,6-dichloro-4-fluorophenyl)-2,3-dihydrobenzo[b][1,4]dioxin-5-yl)-2-(2,6-difluorobenzamido)propanoic acid]
55.4	O=C(N[C@@H](Cc1ccc(-c2c(Cl)cc(F)cc2Cl)c2c1OCCO2)C(=O)O)c1c(Cl)cccc1Cl [Example 5, (S)-3-(8-(2,6-dichloro-4-fluorophenyl)-2,3-dihydrobenzo[b][1,4]dioxin-5-yl)-2-(2,6-dichlorobenzamido)propanoic acid]
444	O=C(N[C@@H](Cc1ccc(-c2c(Cl)cc(F)cc2Cl)c2c1OCCO2)C(=O)O)c1c(F)cccc1OC(F)F [Example 6, (S)-3-(8-(2,6-dichloro-4-fluorophenyl)-2,3-dihydrobenzo[b][1,4]dioxin-5-yl)-2-(2-(difluoromethoxy)-6-fluorobenzamido)propanoic acid]
37.8	Cc1cccc(F)c1C(=O)N[C@@H](Cc1ccc(-c2c(Cl)cc(F)cc2Cl)c2c1OCCO2)C(=O)O [Example 7, (S)-3-(8-(2,6-dichloro-4-fluorophenyl)-2,3-dihydrobenzo[b][1,4]dioxin-5-yl)-2-(2-fluoro-6-methylbenzamido)propanoic acid]
0.864	CC[C@@H](Nc1cc(F)c(C(=O)N[C@@H](Cc2ccc(-c3c(C)n(C)c(=O)n(C)c3=O)c3c2OCCO3)C(=O)O)c(F)c1)C(F)(F)F [Example 10, (S)-2-(2,6-difluoro-4-(((R)-1,1,1-trifluorobutan-2-yl)amino)benzamido)-3-(8-(1,3,6-trimethyl-2,4-dioxo-1,2,3,4-tetrahydropyrimidin-5-yl)-2,3-dihydrobenzo[b][1,4]dioxin-5-yl)propanoic acid]
29.3	COc1cc2ccccc2cc1-c1ccc(C[C@H](NC(=O)c2c(F)cccc2F)C(=O)O)c2c1OCCO2 [Example 11, (S)-2-(2,6-difluorobenzamido)-3-(8-(3-methoxynaphthalen-2-yl)-2,3-dihydrobenzo[b][1,4]dioxin-5-yl)propanoic acid]
13.9	O=C(N[C@@H](Cc1ccc(-c2ncc3ccccc3c2C(F)(F)F)c2c1OCCO2)C(=O)O)c1c(F)cccc1F [Example 12, (S)-2-(2,6-difluorobenzamido)-3-(8-(4-(trifluoromethyl)isoquinolin-3-yl)-2,3-dihydrobenzo[b][1,4]dioxin-5-yl)propanoic acid]
0.388	CC[C@@H](Nc1cc(F)c(C(=O)N[C@@H](Cc2ccc(-c3c(C(F)(F)F)cc(C)n(C)c3=O)c3c2COC3)C(=O)O)c(F)c1)C(F)(F)F [Example 13, (S)-2-(2,6-difluoro-4-(((R)-1,1,1-trifluorobutan-2-yl)amino)benzamido)-3-(7-(1,6-dimethyl-2-oxo-4-(trifluoromethyl)-1,2-dihydropyridin-3-yl)-1,3-dihydroisobenzofuran-4-yl)propanoic acid]
0.38	Cc1c(-c2ccc(C[C@H](NC(=O)c3c(F)cc(N4CCOC[C@@H]4C(F)(F)F)cc3F)C(=O)O)c3c2COC3)c(=O)n(C)c(=O)n1C [Example 14, (S)-2-(2,6-difluoro-4-((R)-3-(trifluoromethyl)morpholino)benzamido)-3-(7-(1,3,6-trimethyl-2,4-dioxo-1,2,3,4-tetrahydropyrimidin-5-yl)-1,3-dihydroisobenzofuran-4-yl) propanoic acid]
0.939	CC[C@@H](Nc1cc(F)c(C(=O)N[C@@H](Cc2ccc(-c3c(C)n(C)c(=O)n(C)c3=O)c3c2COC3)C(=O)O)c(F)c1)C(F)(F)F [Example 15, (S)-2-(2,6-difluoro-4-(((R)-1,1,1-trifluorobutan-2-yl)amino)benzamido)-3-(7-(1,3,6-trimethyl-2,4-dioxo-1,2,3,4-tetrahydropyrimidin-5-yl)-1,3-dihydroisobenzofuran-4-yl)propanoic acid]
31.1	O=C(N[C@@H](Cc1ccc(-c2c(Cl)cc(F)cc2Cl)c2c1COC2)C(=O)O)c1c(F)cccc1F [Example 16, (S)-3-(7-(2,6-dichloro-4-fluorophenyl)-1,3-dihydroisobenzofuran-4-yl)-2-(2,6-difluorobenzamido)propanoic acid]
127	O=C(N[C@@H](Cc1ccc(-c2c(Cl)cc(F)cc2Cl)c2c1COC2)C(=O)O)c1c(Cl)cccc1Cl [Example 17, (S)-3-(7-(2,6-dichloro-4-fluorophenyl)-1,3-dihydroisobenzofuran-4-yl)-2-(2,6-dichlorobenzamido)propanoic acid]
5.22	Cc1c(-c2ccc(C[C@H](NC(=O)c3c(F)cccc3F)C(=O)O)c3c2COC3)c(=O)n(C)c(=O)n1C [Example 18, (S)-2-(2,6-difluorobenzamido)-3-(7-(1,3,6-trimethyl-2,4-dioxo-1,2,3,4-tetrahydropyrimidin-5-yl)-1,3-dihydroisobenzofuran-4-yl)propanoic acid]
0.193	Cc1cc(C(F)(F)F)c(-c2ccc(C[C@H](NC(=O)c3c(F)cc(N4CCOC[C@@H]4C(F)(F)F)cc3F)C(=O)O)c3c2COC3)c(=O)n1C [Example 19, (S)-2-(2,6-difluoro-4-((R)-3-(trifluoromethyl)morpholino)benzamido)-3-(7-(1,6-dimethyl-2-oxo-4-(trifluoromethyl)-1,2-dihydropyridin-3-yl)-1,3-dihydroisobenzofuran-4-yl)propanoic acid]
0.242	Cc1cc(C(F)(F)F)c(-c2ccc(C[C@H](NC(=O)c3c(F)cc(N[C@H](C)C(F)(F)F)cc3F)C(=O)O)c3c2COC3)c(=O)n1C [Example 20, (S)-2-(2,6-difluoro-4-(((R)-1,1,1-trifluoropropan-2-yl)amino)benzamido)-3-(7-(1,6-dimethyl-2-oxo-4-(trifluoromethyl)-1,2-dihydropyridin-3-yl)-1,3-dihydroisobenzofuran-4-yl)propanoic acid]
